Molecular target: T1, human muscarinic acetylcholine M1 receptor (hM1 mAChR) (Homo sapiens, UniProt P11229)
T1 sequence (P11229 1-460): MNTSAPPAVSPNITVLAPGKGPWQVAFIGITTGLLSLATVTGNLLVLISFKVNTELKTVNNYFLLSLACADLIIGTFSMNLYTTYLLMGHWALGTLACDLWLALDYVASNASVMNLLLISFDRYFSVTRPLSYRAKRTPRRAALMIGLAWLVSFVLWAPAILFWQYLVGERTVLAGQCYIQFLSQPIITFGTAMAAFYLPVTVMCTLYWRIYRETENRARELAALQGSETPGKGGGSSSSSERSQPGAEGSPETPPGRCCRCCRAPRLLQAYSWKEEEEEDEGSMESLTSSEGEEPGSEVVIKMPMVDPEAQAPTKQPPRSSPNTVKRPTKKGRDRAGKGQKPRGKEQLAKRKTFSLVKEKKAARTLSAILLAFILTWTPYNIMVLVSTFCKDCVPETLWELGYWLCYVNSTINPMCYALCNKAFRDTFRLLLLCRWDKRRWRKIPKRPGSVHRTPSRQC
Assay: IP1 accumulation
Format: cell-based
Settings: vehicle-pretreated control; orthosteric agonist; […]°C, […] h, pH […]

`C[N+](C)(C)CC#CCN1CCCC1=O` [Oxo-M] was tested, and the “pEC50^a” value was 6.08 ± 0.13.
